Measured values published in the supplement of paper PMC10307832.

How the values were obtained:
Assay in all cases: relative viability (nuclei count vs DMSO), 5 days (fraction); higher = more cells survive
[1] = compound: O=C(Nc1cccc(C(F)(F)F)c1)Nc1cc(S(=O)(=O)NC2CC2)ccc1-c1ccsc1 [AGI-6780] + N=C(N)NC(=N)NCCc1ccccc1 [Phenformin] (partner 250 µM)
Procedure, shortened: (§1)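 Relative viability is defined as nuclei in treated wells over nuclei in vehicle wells. Duplicate plates were run and medians reported. Lung cancer cell lines in 1536-well plates were dosed by pin tool one day after seeding, with one drug or with a fixed anchor-drug dose plus five library-drug doses (not always all listed) in √10 steps, and nuclei were counted after 5 days.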

[2] = compound: O=C(Nc1cccc(C(F)(F)F)c1)Nc1cc(S(=O)(=O)NC2CC2)ccc1-c1ccsc1 [AGI-6780] + Nc1ncn([C@H]2C[C@H](O)[C@@H](CO)O2)c(=O)n1 [Decitabine] (partner 2 µM)
Procedure, shortened: as §1

[3] = compound: O=C(Nc1cccc(C(F)(F)F)c1)Nc1cc(S(=O)(=O)NC2CC2)ccc1-c1ccsc1 [AGI-6780] + CS(=O)(=O)N1CCN(Cc2cc3nc(-c4cccc5[nH]ncc45)nc(N4CCOCC4)c3s2)CC1 [Pictilisib] (partner 1 µM)
Procedure, shortened: as §1

[4] = compound: O=C(Nc1cccc(C(F)(F)F)c1)Nc1cc(S(=O)(=O)NC2CC2)ccc1-c1ccsc1 [AGI-6780] + CC(=O)c1c(C)c2cnc(Nc3ccc(N4CCNCC4)cn3)nc2n(C2CCCC2)c1=O [Palbociclib] (partner 0.5 µM)
Procedure, shortened: as §1

Cell Line	relative viability ([1]; first compound 0.08 µM)	relative viability ([1]; first compound 0.253 µM)	relative viability ([1]; first compound 0.8 µM)	relative viability ([1]; first compound 2.53 µM)	relative viability ([1]; first compound 8 µM)	relative viability ([2]; first compound 0.253 µM)	relative viability ([2]; first compound 0.8 µM)	relative viability ([2]; first compound 2.53 µM)	relative viability ([2]; first compound 8 µM)	relative viability ([3]; first compound 0.08 µM)	relative viability ([3]; first compound 0.253 µM)	relative viability ([3]; first compound 0.8 µM)	relative viability ([3]; first compound 2.53 µM)	relative viability ([3]; first compound 8 µM)	relative viability ([4]; first compound 0.253 µM)	relative viability ([4]; first compound 0.8 µM)	relative viability ([4]; first compound 2.53 µM)	relative viability ([4]; first compound 8 µM)	relative viability ([2]; first compound 0.08 µM)	relative viability ([4]; first compound 0.08 µM)
PC-3 [JPC-3]	0.51	0.483	0.479	0.502	0.496	0.797	0.868	0.802	0.775	0.767	0.78	0.819	0.687	0.691	0.574	0.563	0.566	0.571		
NCI-H2170	0.413	0.459	0.631	0.422	0.403	0.495	0.477		0.459	0.348	0.358	0.328		0.303	0.421	0.43		0.376	0.469	0.393
LCLC-97TM1	0.402	0.409	0.419	0.439	0.436	0.219	0.304	0.19	0.231	0.195	0.218	0.257		0.245	0.223	0.235	0.212	0.207	0.221	0.197
NCI-H460	0.529	0.527	0.568	0.585	0.524	0.453	0.552	0.446	0.512	0.325	0.338	0.382	0.242	0.374	0.211	0.144	0.136	0.15	0.547	0.145
UMC-11	0.336	0.344	0.336		0.365	0.335	0.7		0.678	0.822	0.837	1.08		0.887	0.324	0.334		0.336	0.394	0.34
BEN	0.25	0.281	0.289	0.288	0.28	0.757	0.722		0.836	0.527	0.629	0.586		0.521	0.429	0.457		0.502	0.662	0.488
LCLC-103H	0.311	0.305	0.338	0.33	0.375	0.824	0.714	0.726	0.753	0.582	0.681	0.516	0.457	0.663	0.476	0.526	0.445	0.463	0.768	0.487
NCI-H1651	0.331	0.362	0.394	0.335	0.37	0.627	0.619	0.535	0.653	0.547	0.673	0.495	0.509	0.511	0.538	0.534	0.466	0.547	0.557	0.522
SW 1573	0.378	0.36	0.567		0.368	0.449	0.65	0.417	0.493	0.506	0.518	0.514	0.374	0.543	0.332	0.479		0.37	0.6	0.399
NCI-H1975	0.437	0.427	0.41		0.395	0.427	0.38	0.377	0.382	0.315	0.3	0.31	0.244	0.26	0.673	0.531	0.492	0.584	0.38	0.569
NCI-H650	0.447	0.502	0.451	0.435	0.438	0.296	0.377	0.33	0.296	0.872	0.769	0.833	0.775	0.826	0.3	0.258	0.333	0.334	0.288	0.34
LC-2-ad	0.623	0.59	0.605	0.54	0.505	0.804	0.791	0.868	0.793	0.598	0.726	0.532	0.381	0.456	0.525	0.524	0.526	0.463	0.835	0.536
NCI-H2023	0.395	0.39	0.413	0.403	0.389	0.238	0.256	0.233	0.239	0.284	0.279	0.271	0.181	0.229	0.372	0.421	0.357	0.4	0.208	0.394
NCI-H1650	0.387	0.407	0.498	0.4	0.382	0.485	0.381	0.305	0.387	0.566	0.555	0.678	0.568	0.586	0.456	0.447	0.442	0.432	0.435	0.297
HCC-78		0.735	0.814	0.716	0.607	0.695	0.708	0.661	0.688	0.159	0.241	0.299	0.152	0.249	0.395	0.443	0.42	0.458	0.604	0.457
RERF-LC-KJ	0.421	0.455	0.439	0.367	0.411	0.698	0.829	0.644	0.611	0.559	0.537	0.604	0.418	0.467	1.09	1.07	0.93	1.01	0.634	1.06
NCI-H358	0.363	0.317	0.438	0.35	0.394	0.242	0.208	0.184	0.194	0.355	0.38	0.355	0.289	0.336	0.131	0.119	0.138	0.154	0.219	0.129

Cell Line	relative viability ([1]; first compound 0.08 µM)	relative viability ([1]; first compound 0.253 µM)	relative viability ([1]; first compound 0.8 µM)	relative viability ([1]; first compound 2.53 µM)	relative viability ([1]; first compound 8 µM)	relative viability ([2]; first compound 0.253 µM)	relative viability ([2]; first compound 0.8 µM)	relative viability ([2]; first compound 2.53 µM)	relative viability ([2]; first compound 8 µM)	relative viability ([3]; first compound 0.08 µM)	relative viability ([3]; first compound 0.253 µM)	relative viability ([3]; first compound 0.8 µM)	relative viability ([3]; first compound 2.53 µM)	relative viability ([3]; first compound 8 µM)	relative viability ([4]; first compound 0.253 µM)	relative viability ([4]; first compound 0.8 µM)	relative viability ([4]; first compound 2.53 µM)	relative viability ([4]; first compound 8 µM)	relative viability ([2]; first compound 0.08 µM)	relative viability ([4]; first compound 0.08 µM)
SK-MES-1	0.689	0.647	0.623	0.665	0.683	0.382	0.462	0.294	0.377	0.365	0.367	0.338	0.273	0.344	0.346	0.27	0.285	0.294	0.364	0.31
NCI-H1437	0.337	0.382	0.298	0.327	0.343	0.587	0.594	0.583	0.576	0.438	0.545	0.432	0.283	0.43	0.365	0.25	0.347	0.322	0.572	0.296
HOP-62	0.684	0.663	0.876	0.689	0.763	0.264	0.235	0.25	0.218	0.815	0.928	0.88	0.651	0.786	0.47	0.516	0.467	0.543	0.199	0.375
HCC-15	0.551	0.525	0.505	0.428	0.47	0.756	0.666	0.546	0.697	0.88	0.82	0.834	0.594	0.801	0.649	0.689	0.718	0.728	0.677	0.787
HCC-44	0.182	0.202	0.354	0.175	0.257	0.977	0.997	0.94	0.968	0.745	0.72	0.649	0.496	0.486	0.978	0.959	0.99	0.966	0.926	0.969
NCI-H441	1.07	0.964	0.822	0.668	0.787	0.28	0.25	0.204	0.241	0.562	0.483	0.565	0.288	0.381	0.259	0.232	0.195	0.263	0.221	0.248
NCI-H2405	0.431	0.381	0.279	0.339	0.382	0.781	0.662	0.626	0.66	0.411	0.467	0.262		0.53	0.532	0.45	0.47	0.526		
NCI-H1993	0.419	0.51	0.495	0.499	0.54	0.57	0.595		0.688	0.0371	0.802	0.854	0.661	0.82	0.649	0.78		0.609	0.593	0.693
ABC-1	0.218	0.263	0.238	0.263	0.197	1.42	0.87	1.05	0.924	0.86	0.865	1.05	0.864	0.756	0.666	0.846	0.608	0.905		
A-427	0.326	0.294	0.359	0.315	0.338	0.538	0.573	0.508	0.527	0.702	0.753	0.653	0.524	0.854	0.504	0.548	0.462	0.491		
LOU-NH91	0.707	0.659	0.774	0.677	0.698	0.811	0.803	0.826	0.802	0.524	0.529	0.554	0.505	0.525	0.528	0.521	0.515	0.55	0.834	0.529
HCC-366	0.615	0.667	0.589	0.321	0.682	0.304	0.39	0.308	0.355	0.185	0.111	0.108	0.15	0.175	0.388	0.41	0.29	0.405	0.341	0.369
NCI-H661	0.284	0.344	0.27	0.261	0.252	0.567	0.612	0.502	0.558	0.378	0.482	0.45	0.317	0.381	0.41	0.411	0.371	0.432	0.589	0.418
NCI-H1666	0.51	0.573	0.534	0.554	0.618	0.78	0.733	0.663	0.72	0.332	0.472	0.421		0.567	0.679	0.616	0.601	0.601	0.665	0.605
NCI-H1915	0.37	0.371	0.369	0.374	0.376	0.267	0.283	0.255	0.26	1.02	1.04	0.976	0.855	1.03	0.506	0.518	0.46	0.524	0.276	0.525
NCI-H2085	0.728	0.836	0.736	0.716	0.707	0.534	0.523	0.474	0.537	0.468	0.541	0.48	0.404	0.491	0.5	0.469	0.535	0.5	0.574	0.469
